Results as given in patent US6737383B1, “Herbicidal oxadiazolidines” (priority 1999, dated 2004).

Tests used:
[1] = system: purple nutsedge; assay: Test B pre/postemergence purple nutsedge; type: in vivo, Cyperus rotundus
Method in brief: (§1)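 Test chemicals in a non-phytotoxic solvent mixture with surfactant were sprayed preemergence onto planted seeds and postemergence onto plants 2 to 18 cm tall (1- to 4-leaf stage). After twelve to sixteen days in a greenhouse, injury was visually rated against untreated controls from 0 (no effect) to 10 (complete control).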

[2] = system: crabgrass; assay: Test B pre/postemergence crabgrass; type: in vivo, Digitaria sanguinalis
Method in brief: as §1

[3] = system: morningglory; assay: Test B pre/postemergence morningglory; type: in vivo, Ipomoea hederacea
Method in brief: as §1

[4] = system: giant foxtail; assay: Test B pre/postemergence giant foxtail; type: in vivo, Setaria faberii
Method in brief: as §1

[5] = system: pigweed; assay: Test B pre/postemergence pigweed; type: in vivo, Amaranthus retroflexus
Method in brief: as §1

[6] = system: sugar beet; assay: Test B pre/postemergence sugar beet; type: in vivo, Beta vulgaris
Method in brief: as §1

[7] = system: cocklebur; assay: Test B pre/postemergence cocklebur; type: in vivo, Xanthium strumarium
Method in brief: as §1

[8] = system: surinam grass; assay: Test B pre/postemergence surinam grass; type: in vivo, Brachiaria decumbens
Method in brief: as §1

[9] = system: rape; assay: Test B pre/postemergence rape; type: in vivo, Brassica napus
Method in brief: as §1

[10] = system: corn; assay: Test B pre/postemergence corn; type: in vivo, Zea mays
Method in brief: as §1

[11] = system: wheat; assay: Test B pre/postemergence wheat; type: in vivo, Triticum aestivum
Method in brief: as §1

[12] = system: velvetleaf; assay: Test B pre/postemergence velvetleaf; type: in vivo, Abutilon theophrasti
Method in brief: as §1

[13] = system: blackgrass; assay: Test B pre/postemergence blackgrass; type: in vivo, Alopecurus myosuroides
Method in brief: as §1

[14] = system: soybean; assay: Test B pre/postemergence soybean; type: in vivo, Glycine max
Method in brief: as §1

[15] = system: bedstraw; assay: Test B pre/postemergence bedstraw; type: in vivo, Galium aparine; settings: Rate 250 g/ha, Postemergence; scale of 0 to 10 where 0 is no effect and 10 is complete control
Method in brief: as §1

[16] = system: wild oat; assay: Test B pre/postemergence wild oat; type: in vivo, Avena fatua
Method in brief: as §1

[17] = Postemergence, Rate 500 g/ha, scale 0 to 10, 0 is no effect, 10 is complete control
[18] = Preemergence, Rate 62 g/ha, scale of 0 to 10 where 0 is no effect and 10 is complete control
[19] = Preemergence, Rate 125 g/ha, scale 0 to 10, 0 is no effect, 10 is complete control
[20] = Preemergence, Rate 500 g/ha, scale of 0 to 10 where 0 is no effect and 10 is complete control
[21] = Postemergence, Rate 62 g/ha, scale of 0 to 10, 0 is no effect, 10 is complete control
[22] = Postemergence, Rate 125 g/ha, scale 0 to 10, 0 is no effect, 10 is complete control
[23] = Rate 250 g/ha, Postemergence, scale of 0 to 10 where 0 is no effect and 10 is complete control

CCC(=O)Cn1c(=O)on(C(=O)N(c2ccc(F)cc2F)C(C)C)c1=O [Compound 524]
6: Sugarbeets plant response rating (0 to 10 scale) ([6]; Preemergence, Rate 250 g/ha) | Plant response rating, Velvetleaf [12, 17]
10: Crabgrass plant response rating [2, 19] | Crabgrass plant response rating [2, 20] | Giant foxtail plant response rating [4, 20]
5: Plant response rating, Corn [10, 17] | Plant response rating, Wheat [11, 17] | Wheat plant response rating [11, 19] | Plant response rating, Velvetleaf [12, 23] | Plant response rating, Wild oats [16, 17]
4: Nutsedge plant response rating [1, 20] | Giant foxtail plant response rating [4, 21] | Velvetleaf plant response rating (0 to 10 scale) ([12]; Preemergence, Rate 250 g/ha) | Velvetleaf plant response rating [12, 20] | Plant response rating, Blackgrass [13, 18] | Blackgrass plant response rating [13, 19] | Blackgrass plant response rating (0 to 10 scale) ([13]; Preemergence, Rate 250 g/ha) | Plant response rating, Soybean [14, 17]
3: Crabgrass plant response rating [2, 21] | Sugarbeets plant response rating [6, 19] | Plant response rating, Cocklebur [7, 17] | Plant response rating, Rape [9, 17] | Plant response rating, Corn [10, 23] | Velvetleaf plant response rating [12, 19] | Soybean plant response rating [14, 21] | Plant response rating, Soybean [14, 23]
7: Rape plant response rating (0 to 10 scale) ([9]; Preemergence, Rate 250 g/ha) | Corn plant response rating (0 to 10 scale) ([10]; Preemergence, Rate 250 g/ha) | Wheat plant response rating (0 to 10 scale) ([11]; Preemergence, Rate 250 g/ha) | Plant response rating, Wild oats [16, 18]
0: Plant response rating, Nutsedge [1, 17] | Plant response rating, Nutsedge [1, 18] | Nutsedge plant response rating [1, 19] | Nutsedge plant response rating (0 to 10 scale) ([1]; Preemergence, Rate 250 g/ha) | Morningglory plant response rating [3, 21] | Plant response rating, Morningglory [3, 18] | Morningglory plant response rating [3, 19] | Redroot pigweed plant response rating [5, 21] | Redroot pigweed plant response rating [5, 22] | Plant response rating, Redroot pigweed [5, 17] | Plant response rating, Redroot pigweed [5, 23] | Sugarbeets plant response rating [6, 21] | Sugarbeets plant response rating [6, 22] | Plant response rating, Sugarbeets [6, 17] | Plant response rating, Sugarbeets [6, 18] | Plant response rating, Sugarbeets [6, 23] | Cocklebur plant response rating [7, 21] | Cocklebur plant response rating [7, 22] | Plant response rating, Cocklebur [7, 18] | Cocklebur plant response rating [7, 19] | Cocklebur plant response rating (0 to 10 scale) ([7]; Preemergence, Rate 250 g/ha) | Plant response rating, Cocklebur [7, 23] | B. signalgrass plant response rating [8, 21] | B. signalgrass plant response rating [8, 22] | Plant response rating, B. signalgrass [8, 18] | B. signalgrass plant response rating [8, 19] | Rape plant response rating [9, 21] | Rape plant response rating [9, 22] | Plant response rating, Rape [9, 23] | Corn plant response rating [10, 21] | Plant response rating, Corn [10, 18] | Corn plant response rating [10, 19] | Wheat plant response rating [11, 21] | Wheat plant response rating [11, 22] | Plant response rating, Wheat [11, 18] | Plant response rating, Wheat [11, 23] | Velvetleaf plant response rating [12, 21] | Velvetleaf plant response rating [12, 22] | Plant response rating, Velvetleaf [12, 18] | Blackgrass plant response rating [13, 21] | Plant response rating, Soybean [14, 18] | Soybean plant response rating [14, 19] | Soybean plant response rating (0 to 10 scale) ([14]; Preemergence, Rate 250 g/ha) | Soybean plant response rating [14, 20] | Wild oats plant response rating [16, 21] | Wild oats plant response rating [16, 22] | Plant response rating, Wild oats [16, 23]
9: Plant response rating, Crabgrass [2, 17] | Plant response rating, Crabgrass [2, 18] | Crabgrass plant response rating (0 to 10 scale) ([2]; Preemergence, Rate 250 g/ha) | Plant response rating, Giant foxtail [4, 17] | Plant response rating, Giant foxtail [4, 18] | Giant foxtail plant response rating [4, 19] | Giant foxtail plant response rating (0 to 10 scale) ([4]; Preemergence, Rate 250 g/ha) | Plant response rating, B. signalgrass [8, 17] | Corn plant response rating [10, 20] | Plant response rating, Blackgrass [13, 23] | Plant response rating, Bedstraw [15] | Wild oats plant response rating [16, 19]
8: Crabgrass plant response rating [2, 22] | Plant response rating, Crabgrass [2, 23] | Giant foxtail plant response rating [4, 22] | Plant response rating, Giant foxtail [4, 23] | Plant response rating, Redroot pigweed [5, 18] | Redroot pigweed plant response rating [5, 19] | Redroot pigweed plant response rating (0 to 10 scale) ([5]; Preemergence, Rate 250 g/ha) | Plant response rating, Blackgrass [13, 17] | Wild oats plant response rating (0 to 10 scale) ([16]; Preemergence, Rate 250 g/ha)
2: Morningglory plant response rating [3, 22] | Plant response rating, Morningglory [3, 17] | Morningglory plant response rating (0 to 10 scale) ([3]; Preemergence, Rate 250 g/ha) | Morningglory plant response rating [3, 20] | Plant response rating, Morningglory [3, 23] | Cocklebur plant response rating [7, 20] | B. signalgrass plant response rating (0 to 10 scale, 0 is no effect, 10 is complete control) ([8]; Preemergence, Rate 250 g/ha) | Plant response rating, B. signalgrass [8, 23] | Plant response rating, Rape [9, 18] | Rape plant response rating [9, 19] | Corn plant response rating [10, 22] | Blackgrass plant response rating [13, 22]
